The values below come from ChEMBL document CHEMBL1201862, “PubChem BioAssay data set” (2004).

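Growth conditions: 96-well plates. Treatment: test compound, 48 hours, 5 concentrations. Analysis: linear interpolation between bracketing concentrations; unreached endpoints set to highest concentration. GI50: concentration for 50% inhibition of growth.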 The source made the active and inactive calls. Rule as the data show it: active = GI50 up to about 1.1 µM and inactive = higher.

Some test systems named below: A498; SK-MEL-2; SK-MEL-28; A549; SN12C; KM12; HCT-15; SF-295; SF-539; CAKI-1; M14; COLO 205; HCC 2998; ACHN; CCRF-CEM; SK-OV-3; RXF 393.
Experiment in all cases: NCI-60 cell line screen, 48 h

For `Cc1ccc2nc(NC(=O)C(=O)CC(=O)c3cccc4ccccc34)sc2c1`, the GI50 in the assay with A498 was 63.5 µM (inactive); in the assay on SK-MEL-2, 35.5 µM (inactive); in the assay on SK-MEL-28, 48.4 µM (inactive); with A549 it was 33.6 µM (inactive); in the assay on SN12C, 52 µM (inactive); in the assay with KM12 it was 29.1 µM (inactive). Further, the GI50 with HCT-15 is 59.2 µM; in the assay with SF-295 it was 19.9 µM (inactive); with SF-539, 24.7 µM (inactive); with CAKI-1, 22.2 µM (inactive); in the assay with M14 it was 19.6 µM (inactive); in the assay with COLO 205 it was 60.4 µM (inactive). Also, the GI50 with HCC 2998 is 39.2 µM (inactive); in the assay on ACHN it was 41.9 µM (inactive); in the assay with CCRF-CEM, 30.8 µM (inactive); in the assay with SK-OV-3, 19.2 µM (inactive).
Turning to `O=C(C#Cc1ccccc1)Nc1ccccc1CC(c1c[nH]c2ccccc12)c1c[nH]c2ccccc12`, the GI50 in the assay on SK-MEL-2 was 18.3 µM (inactive); with SK-MEL-28, 15.5 µM (inactive); with A549, 23.2 µM (inactive); in the assay on SN12C, 8.83 µM (inactive); in the assay on KM12 it was 14.7 µM (inactive); with HCT-15, 7.5 µM. The GI50 with SF-295 was 9.46 µM (inactive); in the assay on RXF 393, 3.02 µM (inactive); in the assay with SF-539 it was 12.3 µM (inactive); in the assay with CAKI-1, 16.9 µM (inactive); with M14, 15.6 µM (inactive); in the assay on COLO 205 it was 18.2 µM (inactive). Moreover, the GI50 in the assay with HCC 2998 is 23.2 µM (inactive); in the assay with CCRF-CEM it was 3.3 µM (inactive); in the assay on SK-OV-3 it was 33.2 µM (inactive).
Take `O=C1CCC(=O)C12CCc1cccc(O)c12`: the GI50 was > 100 µM (inactive) in the assay with SK-MEL-28; > 100 µM (inactive) in the assay on A549; > 100 µM (inactive) with SN12C; above 100 µM in the assay with HCT-15; > 100 µM (inactive) in the assay with SF-295; > 100 µM (inactive) in the assay on RXF 393. For the same molecule, the GI50 in the assay with CAKI-1, with M14, with COLO 205, in the assay with HCC 2998, in the assay on ACHN and in the assay with SK-OV-3 was > 100 µM (inactive) each time.
On to `CCCOC(=O)C1CCC(=O)N1C(=O)C(C)Cl` (stereo unspecified), for which the GI50 in the assay on A498, with SK-MEL-2, in the assay with SK-MEL-28, with A549, with SN12C and in the assay with KM12 was > 100 µM (inactive) in each case. Moreover, the GI50 in the assay on HCT-15 is above 100 µM; with SF-295 it was > 100 µM (inactive); with CAKI-1, > 100 µM (inactive); with M14, > 100 µM (inactive); in the assay on COLO 205, > 100 µM (inactive); with HCC 2998 it was > 100 µM (inactive). Moreover, the GI50 in the assay with ACHN, with CCRF-CEM and in the assay with SK-OV-3 was > 100 µM (inactive) in each case.
Take `O=C(O)CNCc1c2ccccc2[n+]([O-])c2ccccc12`: the GI50 with A498 is > 100 µM (inactive); in the assay on SK-MEL-2 it was > 100 µM (inactive); in the assay with SK-MEL-28, 75.7 µM (inactive); with A549 it was > 100 µM (inactive); in the assay on SN12C, 73.6 µM (inactive); in the assay on KM12, 51.1 µM (inactive). The GI50 in the assay with HCT-15 is 30.8 µM; in the assay on SF-295, > 100 µM (inactive); in the assay on CAKI-1, > 100 µM (inactive); in the assay with M14 it was > 100 µM (inactive); in the assay with COLO 205 it was > 100 µM (inactive); in the assay on HCC 2998, 21.7 µM (inactive). Besides, the GI50 in the assay with ACHN is 57.4 µM (inactive); in the assay with CCRF-CEM, 34.3 µM (inactive); with SK-OV-3, > 100 µM (inactive).
For `CC12OC(=O)C(C#N)C1(C)C1C(=O)CCCC12` (stereo unspecified), the GI50 in the assay with SK-MEL-2 is > 100 µM (inactive); in the assay on SK-MEL-28, > 100 µM (inactive); with A549 it was > 100 µM (inactive); in the assay with SN12C it was > 100 µM (inactive); with KM12 it was > 100 µM (inactive); with HCT-15, above 100 µM. Further, the GI50 with SF-295, in the assay with RXF 393, with SF-539, with M14, in the assay with COLO 205 and in the assay on ACHN was > 100 µM (inactive) each time. For the same molecule, the GI50 in the assay with CCRF-CEM and in the assay on SK-OV-3 was > 100 µM (inactive) in each case.
With `CCN(CC)c1ccc(C2N3CCCCC3[C@@H]3c4[nH]c5ccccc5c4CCN23)cc1` (stereo partly specified), the GI50 was 14.5 µM (inactive) in the assay with A498; > 10 µM (inactive) with SK-MEL-2; 25.9 µM (inactive) with SK-MEL-28; 49.1 µM (inactive) with A549; 19.7 µM (inactive) in the assay on SN12C; 34.8 µM with HCT-15. Further, the GI50 with SF-295 was 53.7 µM (inactive); with RXF 393, 15.8 µM (inactive); with SF-539 it was 18.3 µM (inactive); in the assay on CAKI-1, 74.3 µM (inactive); with M14, 24.8 µM (inactive); in the assay on COLO 205, 27.4 µM (inactive). For the same molecule, the GI50 with ACHN was 27 µM (inactive); in the assay with CCRF-CEM, 16.3 µM (inactive); in the assay with SK-OV-3 it was 69.7 µM (inactive).
As to `Cc1ccc(O)c(/N=N/c2ccc(S(=O)(=O)O)cc2)n1`, the GI50 was > 100 µM (inactive) in the assay with A498; > 100 µM (inactive) with SK-MEL-28; > 100 µM (inactive) in the assay with A549; > 100 µM (inactive) in the assay on SN12C; above 100 µM in the assay with HCT-15; > 100 µM (inactive) with SF-295. Also, the GI50 in the assay on RXF 393, in the assay on SF-539, in the assay with CAKI-1, with M14, with COLO 205 and in the assay on ACHN was > 100 µM (inactive) each time. Besides, the GI50 with CCRF-CEM and in the assay on SK-OV-3 was > 100 µM (inactive) throughout.
As for `COc1cc(C2c3cc4c(cc3[C@@H](NCCN3CCCCC3)C3COC(=O)[C@H]23)OCO4)cc(OC)c1O` (stereo partly specified), the GI50 in the assay on A498 is 0.165 µM (active); in the assay on SK-MEL-2, 2.07 µM (inactive); with SK-MEL-28, 2.11 µM (inactive); in the assay on A549, 0.0656 µM (active); in the assay on SN12C, 1.91 µM (inactive); in the assay on KM12, 1.01 µM (active). The GI50 with HCT-15 is 0.313 µM; with SF-295, 0.107 µM (active); with SF-539, 0.134 µM (active); in the assay with CAKI-1 it was 0.0918 µM (active); in the assay with M14 it was 0.273 µM (active); in the assay on COLO 205, 1.01 µM (active). In addition, the figures for the GI50 in the assay with ACHN, with CCRF-CEM and in the assay with SK-OV-3 were 0.486 µM (active), 0.0378 µM (active) and 0.098 µM (active), respectively.
For `Cc1c(O)c(=O)ccn1CCN`, the GI50 in the assay with A498, in the assay with SK-MEL-2, in the assay on SK-MEL-28, with A549, in the assay on SN12C and with KM12 was > 100 µM (inactive) each time. Besides, the GI50 with HCT-15 is above 100 µM; in the assay on RXF 393, > 100 µM (inactive); in the assay with CAKI-1 it was > 100 µM (inactive); with M14, > 100 µM (inactive); in the assay with COLO 205, > 100 µM (inactive); in the assay with HCC 2998 it was > 100 µM (inactive). Also, the GI50 in the assay with ACHN, with CCRF-CEM and with SK-OV-3 was > 100 µM (inactive) in each case.
